# Test results from PMC8619001, “Discovery of New Ginsenol-Like Compounds with High Antiviral Activity” (Molecules, 2021).
# Tested on: A/Vladivostok/2/2009 (H1N1)
# Assay: microbe, parasite or virus in culture
# Assay type: cell-based
# Conditions: Influenza A virus, H1N1, MDCK, 72 h, read-out: IC50 H1N1
structure (smiles),measurement,value
"CC(=O)NC12CC(C)(C)C3CCC1(C)CCCC32C [Compound 1a, (1S,3aR,4R,7aS)-N-(2,2,4,7a-tetramethyloctahydro-1,4-etanoinden-3a-yl)-acetamide]",IC50,380 ± 51 nM
